Measurements as given in ChEMBL document CHEMBL3885861, “Open TG-GATES”.

Species on record: Rattus norvegicus
Test: Open TG-GATES - Regimen: Single
Format: toxicity, organism-based, Sprague-Dawley
Parameters: regimen Single, gender Male, age 6 weeks
Conditions: in vivo, sc, 2 mg/kg, route subcutaneous injection, dose 2000 ug/Kg, dose level High; for APTT / Bas / Eos / Fbg / Hb / Ht / Lym / MCH / MCHC / MCV / Mono / Neu / PT / Plat / RBC / Ret / WBC: tissue Blood; for KIDNEY_L / KIDNEY_R / KIDNEY_TOTAL: tissue Kidney; for LIVER: tissue Liver; for A/G / ALP / ALT / AST / BUN / CRE / Ca / Cl / DBIL / GLC / IP / K / LDH / Na / PL / RALB / TBIL / TC / TG / TP / gamma-GTP: tissue Plasma

## CC(=O)O.N=C(N)NCCC[C@@H](NC(=O)[C@@H]1CCCN1C(=O)[C@@H]1CSSCCC(=O)N[C@@H](Cc2ccc(O)cc2)C(=O)N[C@@H](Cc2ccccc2)C(=O)N[C@@H](CCC(N)=O)C(=O)N[C@@H](CC(N)=O)C(=O)N1)C(=O)NCC(N)=O [DESMOPRESSIN ACETATE]
3 h
  TERMINAL_BW: 202.2 g
  APTT: 18 s
  Bas: 0%
  Eos: 1.6%
  Fbg: 237.8 mg/dL
  Hb: 12.9 g/dL
  Ht: 39.6%
  Lym: 64.8%
  MCH: 21.3 pg
  MCHC: 32.6%
  MCV: 65.5 fL
  Mono: 10.6%
  Neu: 22.8%
  PT: 12.3 s
  Plat: 117.4 x10_4/uL
  RBC: 606.2 x10_4/ul
  Ret: 9.2%
  WBC: 85.4 x10_2/uL
  KIDNEY_L: 0.9 g
  KIDNEY_R: 1 g
  KIDNEY_TOTAL: 1.9 g
  LIVER: 9.5 g
  A/G: 2
  ALP: 1436 IU/L
  ALT: 38.6 IU/L
  AST: 70.8 IU/L
  BUN: 22.6 mg/dL
  CRE: 0.4 mg/dL
  Ca: 11.7 mg/dL
  Cl: 97 meq/L
  DBIL: 0.01 mg/dL
  GLC: 217 mg/dL
  IP: 9.5 mg/dL
  K: 4.6 meq/L
  LDH: 134.8 IU/L
  Na: 130.6 meq/L
  PL: 157.4 mg/dL
  RALB: 4 g/dL
  TBIL: 0.048 mg/dL
  TC: 82.4 mg/dL
  TG: 89 mg/dL
  TP: 5.9 g/dL
  gamma-GTP: 0.8 IU/L
6 h
  TERMINAL_BW: 204.1 g
  APTT: 18.4 s
  Bas: 0%
  Eos: 1.2%
  Fbg: 247.9 mg/dL
  Hb: 13.2 g/dL
  Ht: 40%
  Lym: 65.8%
  MCH: 21.8 pg
  MCHC: 33%
  MCV: 66 fL
  Mono: 11.8%
  Neu: 21%
  PT: 12.1 s
  Plat: 120.4 x10_4/uL
  RBC: 606.4 x10_4/ul
  Ret: 10.1%
  WBC: 106 x10_2/uL
  KIDNEY_L: 1 g
  KIDNEY_R: 1 g
  KIDNEY_TOTAL: 2 g
  LIVER: 9.3 g
  A/G: 1.9
  ALP: 1390.6 IU/L
  ALT: 36 IU/L
  AST: 64 IU/L
  BUN: 31.6 mg/dL
  CRE: 0.4 mg/dL
  Ca: 11.1 mg/dL
  Cl: 96.2 meq/L
  DBIL: 0.016 mg/dL
  GLC: 211.2 mg/dL
  IP: 10.6 mg/dL
  K: 4.5 meq/L
  LDH: 122.2 IU/L
  Na: 131 meq/L
  PL: 157.4 mg/dL
  RALB: 3.9 g/dL
  TBIL: 0.084 mg/dL
  TC: 92.4 mg/dL
  TG: 49.4 mg/dL
  TP: 5.9 g/dL
  gamma-GTP: 1 IU/L
9 h
  TERMINAL_BW: 202.3 g
  APTT: 17.8 s
  Bas: 0%
  Eos: 1%
  Fbg: 249 mg/dL
  Hb: 12.8 g/dL
  Ht: 39.2%
  Lym: 74.4%
  MCH: 20.9 pg
  MCHC: 32.7%
  MCV: 63.9 fL
  Mono: 7.4%
  Neu: 17%
  PT: 12.5 s
  Plat: 124.6 x10_4/uL
  RBC: 613.2 x10_4/ul
  Ret: 8.9%
  WBC: 98.6 x10_2/uL
  KIDNEY_L: 1 g
  KIDNEY_R: 1 g
  KIDNEY_TOTAL: 2 g
  LIVER: 8.6 g
  A/G: 2.2
  ALP: 1194.8 IU/L
  ALT: 29.6 IU/L
  AST: 64.2 IU/L
  BUN: 31.8 mg/dL
  CRE: 0.3 mg/dL
  Ca: 11.1 mg/dL
  Cl: 98.6 meq/L
  DBIL: 0.018 mg/dL
  GLC: 197.4 mg/dL
  IP: 10.7 mg/dL
  K: 4.9 meq/L
  LDH: 129.4 IU/L
  Na: 132.8 meq/L
  PL: 137.6 mg/dL
  RALB: 3.8 g/dL
  TBIL: 0.08 mg/dL
  TC: 77.8 mg/dL
  TG: 40.6 mg/dL
  TP: 5.6 g/dL
  gamma-GTP: 0.4 IU/L
24 h
  TERMINAL_BW: 220.4 g
  APTT: 16.2 s
  Bas: 0%
  Eos: 1%
  Fbg: 236.7 mg/dL
  Hb: 12.6 g/dL
  Ht: 38.7%
  Lym: 66.8%
  MCH: 21.1 pg
  MCHC: 32.7%
  MCV: 64.6 fL
  Mono: 10.6%
  Neu: 21.2%
  PT: 12.4 s
  Plat: 121 x10_4/uL
  RBC: 599 x10_4/ul
  Ret: 9.6%
  WBC: 88.8 x10_2/uL
  KIDNEY_L: 1 g
  KIDNEY_R: 1 g
  KIDNEY_TOTAL: 2.1 g
  LIVER: 10.4 g
  A/G: 1.9
  ALP: 1283.2 IU/L
  ALT: 33.4 IU/L
  AST: 60 IU/L
  BUN: 20 mg/dL
  CRE: 0.3 mg/dL
  Ca: 11.1 mg/dL
  Cl: 103.6 meq/L
  DBIL: 0 mg/dL
  GLC: 195.2 mg/dL
  IP: 8.4 mg/dL
  K: 5.4 meq/L
  LDH: 128.4 IU/L
  Na: 136.4 meq/L
  PL: 150 mg/dL
  RALB: 3.5 g/dL
  TBIL: 0.014 mg/dL
  TC: 81.4 mg/dL
  TG: 110 mg/dL
  TP: 5.3 g/dL
  gamma-GTP: 1.4 IU/L
